Results on six molecules are retold here after ChEMBL document CHEMBL3102748, “Structure-activity relationship studies on acremomannolipin A, the potent calcium signal modulator with a novel glycolipid structure 2: Role of the alditol side chain stereochemistry” (Bioorg Med Chem, 2014).

SMILES strings stand for the structures. The source made the active and inactive calls. The rule behind the calls is not given here.

In the assay the test system is Schizosaccharomyces pombe. The assay can be described thus: Induction of calcium signaling pathway-mediated cell growth in ppb1-deficient Schizosaccharomyces pombe h+ leu1 ura4-D18 ppb1::ura4+ at 100 uM after 3 days by filter paper disc method in presence of MgCl2. Type of assay: functional, organism-based.
In the case of `CCCCCCCC(=O)O[C@@H]1[C@H](OC[C@@H](O)[C@H](O)[C@@H](O)[C@@H](O)CO)O[C@H](COC(=O)CCCCC)[C@@H](OC(=O)CCCCC)[C@@H]1OC(=O)CCCCC`, the outcome was Active.
Take `CCCCCCCC(=O)O[C@@H]1[C@H](OC[C@H](O)[C@@H](O)[C@@H](O)[C@H](O)CO)O[C@H](COC(=O)CCCCC)[C@@H](OC(=O)CCCCC)[C@@H]1OC(=O)CCCCC`: the outcome was Active.
The result for `CCCCCCCC(=O)O[C@@H]1[C@H](OC[C@H](O)[C@@H](O)[C@H](O)[C@H](O)CO)O[C@H](COC(=O)CCCCC)[C@@H](OC(=O)CCCCC)[C@@H]1OC(=O)CCCCC` reads “Active”; that for `CCCCCCCC(=O)O[C@@H]1[C@H](OC[C@@H](O)[C@@H](O)[C@H](O)[C@@H](O)CO)O[C@H](COC(=O)CCCCC)[C@@H](OC(=O)CCCCC)[C@@H]1OC(=O)CCCCC`, “Active”; that for `CCCCCCCC(=O)O[C@@H]1[C@H](OC[C@@H](O)[C@H](O)[C@H](O)[C@@H](O)CO)O[C@H](COC(=O)CCCCC)[C@@H](OC(=O)CCCCC)[C@@H]1OC(=O)CCCCC`, “Active”.
The result for `CCCCCCCC(=O)O[C@@H]1[C@H](OC[C@@H](O)[C@@H](O)[C@H](O)[C@H](O)CO)O[C@H](COC(=O)CCCCC)[C@@H](OC(=O)CCCCC)[C@@H]1OC(=O)CCCCC` reads “Active”.
